How the values were obtained:
[1] = Maximum solubility of compound A in various oily phases; format: physicochemical
[2] = Chemical stability of compound A in oily phases (HPLC-UV); format: physicochemical
Description: The stability of the active agent was evaluated by liquid chromatography coupled to a UV detector (HPLC-UV).

[3] = Chemical stability of compound A in gel compositions (HPLC-UV assay); format: physicochemical; details: 4° C., room temperature and 40° C., up to 6 to 7 months
Description: Compositions 1 and 2 according to Example 3 were placed under various stability conditions: 4° C., room temperature and 40° C., and were monitored for 6 to 7 months. At each stability checkpoint, compound A was assayed by HPLC-UV.

ear of BALB/C mice = assay: Tolerance study: pro-inflammatory effect after single application to the mouse ear (ear thickness); format: in vivo; details: single topical application, 0.01% in acetone, 20 μl
Description: The aim of the study is to evaluate the effect of a composition according to the invention on the pro-inflammatory activity associated with retinoids in general.
A single application of 20 μl of the test products was administered to the ear of the mice on day 1. Clinical observations and measurements of the mouse ear thickness, directly linked to inflammation, are performed from day 2 up to day 12.

[4] = in caprylic/capric acid triglycerides (Miglyol 812N)
[5] = in diisopropyl adipate (Crodamol DA)
[6] = in macrogol oleate (Labrafil M1944CS)
[7] = in propylene glycol dicaprylate/dicaprate (Myritol PC)
[8] = in propylene glycol monolaurate (Lauroglycol FCC)

Compound: CC(C)(C)c1cc(-c2cc(-c3ccc(C(=O)O)cc3)ccc2OCCO)ccc1N1CCCC1 [Compound A, 3″-tert-butyl-4′-(2-hydroxyethoxy)-4″-pyrrolidin-1-yl-[1,1′;3′,1″]-terphenyl-4-carboxylic acid]
- Maximum solubility [1, 4]: 0.019 % m/m
- Maximum solubility [1, 5]: 0.297 % m/m
- Maximum solubility [1, 6]: 0.156 % m/m
- Maximum solubility ([1]; in mineral oil): 0.0001 % m/m
- Maximum solubility ([1]; in octyldodecanol (Eutanol G)): 0.137 % m/m
- Maximum solubility [1, 7]: 0.069 % m/m
- Maximum solubility ([1]; in propylene glycol monocaprylate (Capryol 90)): 0.802 % m/m
- Maximum solubility [1, 8]: 0.296 % m/m
- Maximum solubility ([1]; in sweet almond oil): 0.011 % m/m
- Stability [2, 4]: 6 months RT/40 °C
- Stability [2, 5]: 6 months RT/40 °C
- Stability [2, 6]: 6 months RT/40 °C
- Stability ([2]; in octyldodecanol (Eutanol G)): Unstable
- Stability [2, 7]: Unstable
- Stability ([2]; in propylene glycol monocaprylate (Capryol 90), RT = room temperature): 6 months RT/40 °C
- Stability [2, 8]: 6 months RT/40 °C
- Stability ([2]; in sweet almond oil): 6 months RT/40 °C
- Chemical stability of compound A in the gel compositions [3]: chemically stable
- Increase in the thickness of the mouse ear versus acetone alone (ear of BALB/C mice): 59%

— patent US10702604B2, “Lipid nanocapsules comprising a retinoid, nanodispersion and composition containing the same, process for preparing the same and use thereof in dermatology” (GALDERMA RESEARCH & DEVELOPMENT, priority 2012, dated 2020)
